Test results from article PMC6585620 (Clinical Pharmacology and Therapeutics, 2018).
Where two headings read alike, the source gives them in different places.

What was measured:
UGT1A1 [1] = molecular target: T1, UGT1A1 (Homo sapiens, UniProt P22309); details: read-out: UGT1A1 inhibition IC50; in vitro; cited from earlier work
T1 sequence (P22309 26-533): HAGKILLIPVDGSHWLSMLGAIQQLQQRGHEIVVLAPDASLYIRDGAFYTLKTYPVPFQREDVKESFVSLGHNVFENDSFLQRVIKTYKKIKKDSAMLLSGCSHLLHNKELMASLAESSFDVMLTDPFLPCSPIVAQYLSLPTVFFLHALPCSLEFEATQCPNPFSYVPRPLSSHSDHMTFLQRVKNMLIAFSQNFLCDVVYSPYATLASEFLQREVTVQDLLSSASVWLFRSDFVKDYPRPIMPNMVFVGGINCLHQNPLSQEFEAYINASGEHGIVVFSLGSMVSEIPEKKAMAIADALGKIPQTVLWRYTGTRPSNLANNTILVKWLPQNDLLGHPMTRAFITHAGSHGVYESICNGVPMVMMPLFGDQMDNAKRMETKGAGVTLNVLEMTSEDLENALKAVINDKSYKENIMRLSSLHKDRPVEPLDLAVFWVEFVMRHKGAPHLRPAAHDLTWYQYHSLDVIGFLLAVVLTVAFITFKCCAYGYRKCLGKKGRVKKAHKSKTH

P‐glycoprotein (P‐gp) [2] = molecular target: T2, P‐glycoprotein (P‐gp) (Homo sapiens, UniProt P08183); details: read-out: P‐gp inhibition IC50; in vitro; cited from earlier work
P‐glycoprotein (P‐gp) [3] = molecular target: T2, P‐glycoprotein (P‐gp); assay: In vitro P-gp inhibition; type: in vitro ADME
UGT1A1 [4] = molecular target: T1, UGT1A1; assay: In vitro UGT1A1 inhibition; type: in vitro ADME; details: UGT1A1 (Ki=IC50/2), measured data
[5] = cited from earlier work; for Increase in AUC vs normal renal function / Increase in Cmax vs normal renal function: single oral 300 mg tablet
CYP3A4 [6] = assay: In vitro CYP3A4 induction; type: in vitro ADME, human
[7] = Physicochemical properties; details: PBPK input
[8] = Mass balance ADME study with [14C]-olaparib; type: in vivo, human; details: Figure S1
[9] = PKPD exposure-response analysis of SOLO2; type: in vivo, human; details: for a 50% increase in exposure to olaparib
[10] = PBPK model parameters estimated or predicted in Simcyp; design: species or system human; details: for CYP3A CLint: retrograde approach
[11] = Blood-to-plasma ratio and plasma unbound fraction; type: in vitro ADME
[12] = observed, cited from earlier work
[13] = tablet 300 mg bid, cited from earlier work
CYP3A4 [14] = molecular target: T3, CYP3A4 (Homo sapiens, UniProt P08684); assay: In vitro CYP3A4 time-dependent inhibition; type: in vitro ADME; details: measured data
CYP3A4 [15] = molecular target: T3, CYP3A4; assay: In vitro CYP3A4 reversible inhibition; type: in vitro ADME
[16] = capsule model, estimated based on clinical data
[17] = capsule 400 mg single dose, arithmetic mean (min–max)
[18] = tablet 300 mg bid multiple dose
[19] = adults SOLO2 (observed), ref SOLO2 (NCT01874353)

T3 sequence (P08684 whole entry): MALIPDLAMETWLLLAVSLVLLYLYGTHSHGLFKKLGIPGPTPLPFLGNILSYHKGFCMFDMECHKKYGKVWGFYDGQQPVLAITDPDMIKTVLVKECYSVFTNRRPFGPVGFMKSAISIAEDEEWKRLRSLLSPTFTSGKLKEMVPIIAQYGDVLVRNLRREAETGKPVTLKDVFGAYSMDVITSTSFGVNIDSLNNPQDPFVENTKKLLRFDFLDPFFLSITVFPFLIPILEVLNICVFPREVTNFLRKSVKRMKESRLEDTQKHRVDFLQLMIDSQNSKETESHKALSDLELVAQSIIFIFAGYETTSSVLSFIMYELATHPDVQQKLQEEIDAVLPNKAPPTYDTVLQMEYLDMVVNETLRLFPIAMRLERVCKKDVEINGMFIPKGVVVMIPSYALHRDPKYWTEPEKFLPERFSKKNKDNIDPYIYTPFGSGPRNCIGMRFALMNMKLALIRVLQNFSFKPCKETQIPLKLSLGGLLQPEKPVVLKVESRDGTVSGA
T2 sequence (P08183 whole entry): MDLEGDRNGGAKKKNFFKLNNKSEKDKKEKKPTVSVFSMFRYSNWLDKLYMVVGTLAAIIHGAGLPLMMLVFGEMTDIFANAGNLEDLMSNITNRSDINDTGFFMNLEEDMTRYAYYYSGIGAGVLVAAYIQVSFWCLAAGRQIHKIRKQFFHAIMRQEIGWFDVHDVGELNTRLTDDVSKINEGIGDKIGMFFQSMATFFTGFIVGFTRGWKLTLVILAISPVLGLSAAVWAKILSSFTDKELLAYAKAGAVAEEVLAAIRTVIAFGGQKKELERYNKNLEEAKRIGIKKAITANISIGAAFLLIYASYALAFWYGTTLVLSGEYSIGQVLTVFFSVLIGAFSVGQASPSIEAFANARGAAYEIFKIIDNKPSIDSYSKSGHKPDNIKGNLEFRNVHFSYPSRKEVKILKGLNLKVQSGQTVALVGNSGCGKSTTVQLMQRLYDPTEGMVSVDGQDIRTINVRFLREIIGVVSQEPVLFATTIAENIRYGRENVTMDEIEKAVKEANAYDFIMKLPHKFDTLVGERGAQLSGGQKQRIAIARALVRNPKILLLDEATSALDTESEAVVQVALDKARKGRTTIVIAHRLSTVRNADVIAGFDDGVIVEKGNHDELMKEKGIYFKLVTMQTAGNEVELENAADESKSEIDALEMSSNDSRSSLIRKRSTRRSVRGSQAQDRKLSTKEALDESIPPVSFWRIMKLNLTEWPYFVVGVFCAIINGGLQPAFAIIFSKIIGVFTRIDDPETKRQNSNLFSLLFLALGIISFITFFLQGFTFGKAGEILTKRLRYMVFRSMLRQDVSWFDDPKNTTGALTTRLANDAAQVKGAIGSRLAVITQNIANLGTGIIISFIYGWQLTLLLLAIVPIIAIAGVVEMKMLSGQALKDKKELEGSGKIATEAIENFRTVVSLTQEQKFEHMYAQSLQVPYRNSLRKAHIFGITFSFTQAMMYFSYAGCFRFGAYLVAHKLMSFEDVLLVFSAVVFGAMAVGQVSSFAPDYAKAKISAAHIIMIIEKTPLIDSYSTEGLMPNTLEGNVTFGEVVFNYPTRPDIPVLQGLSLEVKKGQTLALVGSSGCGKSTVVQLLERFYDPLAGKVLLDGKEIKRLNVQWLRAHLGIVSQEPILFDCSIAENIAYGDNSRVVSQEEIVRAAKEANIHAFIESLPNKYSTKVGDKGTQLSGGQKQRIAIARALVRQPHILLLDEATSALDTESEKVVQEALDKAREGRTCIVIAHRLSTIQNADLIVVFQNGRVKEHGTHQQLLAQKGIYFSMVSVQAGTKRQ

- Ki (P‐glycoprotein (P‐gp) [3]): 73.9 µM
- Ki (UGT1A1 [4]): 48.4 µM
- EC50 (CYP3A4 [6]; human): 17.7 µM
- CYP3A4 induction Emax (CYP3A4 [6]; measured data): 48.1 (measured data) fold
- pKa [7]: Neutral
- Log P ([7]; measured data): 1.55 (measured data)
- Share of total clearance by oxidation via CYP3A4/5 [8]: 84%
- Share of total clearance by renal elimination [8]: 16%
- Predicted drop in hemoglobin level [9]: ~17.5%
- fu,plasma ([11]; fraction unbound in plasma, measured data): 0.181 (measured data)
- fraction unbound ([11]; human, plasma): 0.181
- CYP3A4 TDI KI (CYP3A4 [14]): 72.2 (measured data) μM
- Ki (CYP3A4 [15]): 59.5 µM
SMILES: O=C(c1cc(Cc2n[nH]c(=O)c3ccccc23)ccc1F)N1CCN(C(=O)C2CC2)CC1 [Olaparib]
- IC50 (UGT1A1 [1]): 96.7 µM
- IC50 (P‐glycoprotein (P‐gp) [2]): 76 µM
- Renal clearance ([5]; based on clinical data, ref NCT01894256): 1.48 (based on clinical data: NCT01894256) L/h
- Change in AUC and Cmax vs normal hepatic function ([5]; mild and moderate hepatic impairment): < 15%
- Increase in AUC vs normal renal function ([5]; mild renal impairment): 24%
- Increase in Cmax vs normal renal function ([5]; mild renal impairment): 15%
- Increase in AUC vs normal renal function ([5]; moderate renal impairment): 44%
- Increase in Cmax vs normal renal function ([5]; moderate renal impairment): 26%
- CLpo [10, 16]: 6.07 (estimated based on clinical data) L/h
- Peff,man [10, 16]: 644 ×10⁻⁶ cm/s (estimated based on clinical data)
- CYP3A CLint ([10]; capsule model): 0.0412 (retrograde approach) µL/min/pmol of isoform
- CLpo ([10]; tablet model, estimated based on clinical data): 7.6 (estimated based on clinical data) L/h
- CYP3A CLint ([10]; tablet model): 0.057 (retrograde approach) µL/min/pmol of isoform
- AUCt (range) [12, 17]: 56.2 (21.9–299) h·µg/mL
- Cmax (range) [12, 17]: 4.44 (3–15) µg/mL
- AUCss (range) [12, 18]: 63.8 (25.5–189) h·µg/mL
- Cmax (range) [12, 18]: 9.71 (4.8–24.9) µg/mL
- Cmax (range) ([12]; tablet 300 mg single dose, arithmetic mean (min–max)): 7.41 (2.6–19.1) µg/mL
- Geometric mean AUC (95% CI) ([13]; adults OlympiAD (observed), ref OlympiAD (NCT02000622)): 41.2 (36.1‐47.0) h·µg/mL
- Geometric mean AUC (95% CI) [13, 19]: 40.7 (37.7–44.0) h·µg/mL
- Geometric mean Cmax (95% CI) [13, 19]: 7.12 (6.75–7.51) μg/mL
